Source: patent US11702422B2, “Imidazopyridazines as modulators of IL-17” (Janssen Pharmaceutica NV, priority 2020, dated 2023)

Legend:
[1] = test system: SCIDhu model of human myeloma; conditions: weekly for 4 weeks after first detection of tumor, compared to isotype control mice; cited from earlier work
patients with active PsA = conditions: compared with anti-TNFα antibodies; cited from earlier work
[2] = test system: patients with moderate-to-severe HS; conditions: seven of nine patients, open-label pilot-trial; cited from earlier work
patients with PsA = conditions: PsA with inadequate response to conventional synthetic disease-modifying antirheumatic drug; cited from earlier work
[3] = biological target: IL-17A(FLAG-Tagged): IL-17RA(His-Tagged) (Homo sapiens, UniProt Q16552, K93Q); assay: IL-17A(FLAG-Tagged): IL-17RA(His-Tagged) Binding Disruption Eu-HTRF Assay; conditions: IL-17A/IL-17RA binding disruption, simple average if tested more than once
Procedure, shortened: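 IC50 comes from a one-site competition fit of the HTRF 665/620 nm ratio. Compound dilutions (2-fold, 22 points) were held 1 h rt with FLAG-tagged IL-17A dimer, then His-tagged IL-17RA plus Eu-cryptate anti-FLAG and D2 anti-His antibodies were added for 2 h rt.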

[4] = test system: IL-17A-induced G-CSF production in human normal keratinocyte (NHK); assay: NHK Assay: IL-17A-induced G-CSF production in human normal keratinocytes; format: cell-based; conditions: Homo sapiens, Keratinocyte, 24 h, adult normal human keratinocytes, IL-17A 5 ng/mL, simple average if tested more than once
Procedure, shortened: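 Titrated compound plus recombinant human IL-17A (pre-incubated 1 h, rt) were applied to adult human keratinocytes at 5 ng/mL cytokine, 0.2% DMSO. Cultures ran 24 h at 37° C, and supernatant G-CSF was measured by HTRF to derive IC50.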

Chain of UniProt Q16552 (Q16552 with tags, fused parts or gaps K93Q): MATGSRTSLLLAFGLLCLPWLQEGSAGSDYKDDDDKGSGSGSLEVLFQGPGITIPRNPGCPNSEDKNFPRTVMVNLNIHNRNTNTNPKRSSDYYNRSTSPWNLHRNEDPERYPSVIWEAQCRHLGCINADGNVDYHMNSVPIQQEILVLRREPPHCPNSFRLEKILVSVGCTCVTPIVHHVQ

Row | Molecule | IC50 [3] [nM] | IC50 [4] [nM] | other results
1 | secukinumab |  |  | bone damage [1]: reduced bone damage; tumor growth [1]: significant inhibition of tumor growth; ACR 20/50/70 response rates (patients with active PsA): higher ACR 20/50/70 response rates; patients achieving HiSCR [2]: 78%
2 | ixekizumab |  |  | simultaneous improvement of joint and skin disease (ACR50 and PASI100) (patients with PsA): superior to adalimumab
3 | O=C(CCC(F)(F)F)N[C@@H](c1cnn2cc([C@@H](NC(=O)c3ccnc(OC4CCC4)c3)C3CCC(F)(F)CC3)nc2c1)C1CC1 [Example 181, 2-Cyclobutoxy-N—((S)-(7-((R)-cyclopropyl(4,4,4-trifluorobutanamido)methyl)imidazo[1,2-b]pyridazin-2-yl)(4,4-difluorocyclohexyl)methyl)isonicotinamide] | 80 | 460 | 
4 | O=C(CCC(F)(F)F)N[C@@H](c1cnn2cc([C@@H](NC(=O)c3nnn(CC(F)F)c3C(F)(F)F)C3CCC(F)(F)CC3)nc2c1)C1CC1 [Example 109, N—((S)-(7-((R)-Cyclopropyl(4,4,4-trifluorobutanamido)methyl)imidazo[1,2-b]pyridazin-2-yl)(4,4-difluorocyclohexyl)methyl)-1-(2,2-difluoroethyl)-5-(trifluoromethyl)-1H-1,2,3-triazole-4-carboxamide] | 440 | 20000 | 
5 | Cc1nocc1C(=O)N[C@H](c1cn2ncc(C(C)NC(=O)CCC(F)(F)F)cc2n1)C1CCC(F)(F)CC1 (stereo partly drawn) [Example 153, N-((1S)-(4,4-Difluorocyclohexyl)(7-(1-(4,4,4-trifluorobutanamido)ethyl)imidazo[1,2-b]pyridazin-2-yl)methyl)-3-methylisoxazole-4-carboxamide] | 420 | 480 | 
6 | Cc1nonc1C(=O)N[C@H](c1cn2ncc([C@H](NC(=O)[C@@H]3CC[C@H]3F)C3CC3)cc2n1)C1CCC(F)(F)CC1 (relative stereo) [Example 335, N—((S)-(7-((R)-Cyclopropyl((1S*,2R*)-2-fluorocyclobutane-1-carboxamido)methyl)imidazo[1,2-b]pyridazin-2-yl)(4,4-difluorocyclohexyl)methyl)-4-methyl-1,2,5-oxadiazole-3-carboxamide] | 7500 | > 20000 | 

More lines, in order of falling IC50 [3], values ahead:

Row | IC50 [3] [nM] | Molecule | IC50 [4] [nM] | other results
7 | 170 | Cc1nonc1C(=O)N[C@H](c1cn2ncc([C@H](NC(=O)C[C@H]3CC3(F)F)C3CC3)cc2n1)C1CCC(F)(F)CC1 (relative stereo) [Example 255] | 600 | 
8 | 120 | Cc1nonc1C(=O)N[C@@H](CC(C)(C)C(F)(F)F)c1cn2ncc([C@H](NC(=O)CC3CC(F)(F)C3)C3CC3)cc2n1 [Example 544, N—((S)-1-(7-((R)-Cyclopropyl(2-(3,3-difluorocyclobutyl)acetamido)methyl)imidazo[1,2-b]pyridazin-2-yl)-4,4,4-trifluoro-3,3-dimethylbutyl)-4-methyl-1,2,5-oxadiazole-3-carboxamide] | 240 | 
9 | 85 | O=C(CCC(F)(F)F)N[C@@H](c1cnn2cc([C@@H](NC(=O)c3ccc(F)cc3)C3CCC(F)(F)CC3)nc2c1)C1CC1 [Example 182, N—((S)-(7-((R)-Cyclopropyl(4,4,4-trifluorobutanamido)methyl)imidazo[1,2-b]pyridazin-2-yl)(4,4-difluorocyclohexyl)methyl)-4-fluorobenzamide] | 510 | 
10 | 57 | O=C(CCC(F)(F)F)N[C@@H](c1cnn2cc([C@@H](NC(=O)c3conc3CCF)C3CCC(F)(F)CC3)nc2c1)C1CC1 [Example 99, N—[(S)-[7-[(R)-Cyclopropyl-(4,4,4-trifluorobutanoylamino)methyl]imidazo[1,2-b]pyridazin-2-yl]-(4,4-difluorocyclohexyl)methyl]-3-(2-fluoroethyl)isoxazole-4-carboxamide] | 60 | 
11 | 48 | Cc1nocc1C(=O)N[C@H](c1cn2ncc([C@H](NC(=O)CC3CC(F)(F)C3)C3CC3)cc2n1)C1CCC(F)(F)CC1 [Example 120, N—((S)-(7-((R)-Cyclopropyl(2-(3,3-difluorocyclobutyl)acetamido)methyl)imidazo[1,2-b]pyridazin-2-yl)(4,4-difluorocyclohexyl)methyl)-3-methylisoxazole-4-carboxamide] | 150 | 
12 | 37 | O=C(CC1CC(F)(F)C1)N[C@@H](c1cnn2cc([C@@H](NC(=O)c3conc3C3CC3)C3CCC(F)(F)CC3)nc2c1)C1CC1 [Example 125, 3-Cyclopropyl-N—((S)-(7-((R)-cyclopropyl(2-(3,3-difluorocyclobutyl)acetamido)methyl)imidazo[1,2-b]pyridazin-2-yl)(4,4-difluorocyclohexyl)methyl)isoxazole-4-carboxamide] | 78 | 
